# Laboratory results published in patent publication US12691094B2, “Use of Crassifolin A in preparation of drug for promoting mitophagy and treating neurodegenerative diseases” (JINAN UNIVERSITY, priority 2021, dated 2026).
# Tests used:
# [1] = system: Hela-mt-Keima cells; test: Flow cytometry of Hela-mt-Keima cells for screening a mitophagy drug; type: cell-based; conditions: 10 μM JGX-1+10 μM FCCP (FIG. 1 legend: JGX-1 10 μM)
# Text: (§1) The Keima fluorescent protein derived from anthozoan has a pH value-dependent bimodal excitation spectrum, that is, Keima can be excited to emit green fluorescence at neutral pH and acidic pH and red fluorescence under the excitation of light with a wavelength of 440 nm and 586 nm, respectively. Since mitochondria that undergo autophagy eventually enter acidic lysosomes, Keima with the mitochondrial localization (mitocondrial Keima, mt-Keima) can indicate the mitochondria that enter the lysosomes via the autophagic pathway. The specific procedure of this experiment is as follow:
# Inoculation of Hela-mt-Keima cells into a 24-well plate at a density of 5×10^4, and then adding 1 mL of DMEM medium containing 10% (v/v) fetal bovine serum (FBS) to them to culture for 24 h; after 24 h, respectively adding 0.1% (v/v) DMSO (dimethyl sulfoxide), with DMSO (10 μM) as a solvent control group (DMSO), 10 μM of mitochondrial uncoupling agent (FCCP) (sigma) as a positive drug control group, and 10 μM JGX-1+10 μM FCCP as an experimental group, each group having 3 replicates; collecting cells on the third day by centrifugation at 1000×g for 3 min, resuspending in 0.5 mL of PBS buffer, sieving at 40 μm on the machine, collecting 5×10^4 cells by flow cytometry, recording the collection time, 405 nm/Qdot605-A, 561 nm/PE-Texas Red-A, and calculating MI=561/405+561.
# [2] = system: Hela-mt-Keima cells; test: Detection of mitophagy in Hela-mt-Keima cells by confocal microscopy; type: cell-based; conditions: 10 μM JGX-1, 8 h
# Text: as §1, with “is, Keima at neutral pH and acidic pH can be” for “is, Keima can be”, “green fluorescence and red” for “green fluorescence at neutral pH and acidic pH and red”, “mitochondrial localization (mitochondrial Keima, mt-Keima)” for “mitochondrial localization (mitocondrial Keima, mt-Keima)”, “is as follows:” for “is as follow:”
# Inoculation of Hela-mt-Keima cells into 12 laser confocal cell culture dishes at a density of 1×10^4, and then adding 1 mL of DMEM medium containing 10% (v/v) FBS; after 5 h, changing the solution, and dividing into a solvent control group (DMSO), a positive drug control group (10 μM FCCP), an experimental group 1 (10 μM JGX-1+10 μM FCCP) and an experimental group 2 (10 μM JGX-1), with 3 replicates in each group; incubating cells in a 5% (v/v) CO2 cell culture incubator at 37° C.; after 8 h, observing the changes in the excitation fluorescence signals of the 458 nm channel (indicating Keima at neutral pH) and the 561 nm channel (indicating Keima at acidic pH) under a laser confocal microscope, randomly selecting 3 fields of view to take photos, and then statistically plotting.
# [3] = system: LC3B; test: Western blot of LC3B in hSY5Y cells; type: cell-based; conditions: JGX-1 10 μmol/L, 24 h
# Text: • a. […]
# [4] = system: pTAU (202); test: Western blot of phosphorylated Tau in hSY5Y cells; type: cell-based; conditions: JGX-1 10 μmol/L, 24 h
# Text: • a. […]
# [5] = system: Tau model mice; test: Morris water maze test of learning memory; type: in vivo; conditions: 10-month-old Tau model mice, oral 20 mg/kg for 3 consecutive months
compound,measurement,setting,value
"COC(=O)[C@]1(C)CCCC2=C1CC[C@@H](C)[C@]2(C)CCC1=CC(=O)OC1 [JGX-1, Crassifolin A]","mitophagy (flow cytometry, MI=561/405+561)",[1],enhance mitophagy
same,mitophagy (confocal live cell imaging),[2],enhance mitophagy
same,expression of autophagic LC3B,[3],enhanced
same,expression of phosphorylated Tau,[4],inhibited
same,dementia symptoms in the model mice,[5],alleviated
same,learning memory of AD model mice,[5],improved effect
